From patent publication US12319655B2, “RAF kinase inhibitors and methods of use thereof” (Deciphera Pharmaceuticals, LLC, priority 2021, dated 2025)

Key:
[1] = molecular target: B-Raf kinase (SEQ. ID NO: 2) (Homo sapiens (Human), UniProt P15056); assay: Biochemical Assay for B-Raf (1); details: Table J, assay version (1); read-out: BRAF (1) IC50
Summary of the method: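 Continuous PK/LDH-coupled NADH oxidation assay, A340 read for 6 h at 30° C., with 0.13 nM B-Raf, 30.1 nM MEK substrate and 1 mM ATP in Tris pH 7.5, MgCl2, DTT, detergents, 1% DMSO. Rate taken from 4–5 h window; percent inhibition vs no-compound and known-inhibitor controls; four-parameter fit gives IC50.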

Miapaca-2 cells = assay: MiaPaca-2 Cell Proliferation Assay (1); type: cell-based; details: Homo sapiens, MIA PaCa-2, single agent, read-out: MiaPaca2 (1) IC50
Procedure: MiaPaca-2 Cell Proliferation Assay (1)
(§1) Miapaca-2 cells (catalog #CRL-1420) are obtained from the American Type Culture Collect (ATTC, Manassas, VA). Briefly, cells were grown in DMEM supplemented with 10% characterized fetal bovine serum (Invitrogen, Carlsbad, CA), 2.5% New Zealand sourced horse serum and 1% Penicillin/Streptomycin/L-Glutamine at 37° C., 5% CO2, and 95% humidity. Cells are expanded until reaching 70-95% confluency at which point they are sub-cultured or harvested for assay use. A serial dilution of test compound is dispensed into a 96-well black clear bottom plate in triplicate. Three thousand cells are added per well in 200 μL complete growth medium in the 96-well plate. Plates are incubated for 67-72 h at 37° C., 5% CO2, and 95% humidity. At the end of the incubation, 40 μL of a 440 μM solution of resazurin (Sigma, St. Louis, MO) in PBS is added to each well of the plate and plates are incubated for an additional 5-6 h at 37° C., 5% CO2, and 95% humidity. Plates are read on a Synergy2 or equivalent reader (Biotek, Winooski VT) using an excitation of 540 nm and an emission of 600 nm. Data is analyzed using Prism software (GraphPad, San Diego, CA) to calculate IC50 values.

[2] = molecular target: B-Raf (V600E) (SEQ. ID NO: 4) kinase (Homo sapiens (Human), UniProt P15056, V600E); assay: Biochemical Assay for B-Raf (V600E) (1); details: Table J, BRAF V600E, assay version (1); read-out: BRAF VE (1) IC50
Summary of the method: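 Coupled pyruvate kinase/lactate dehydrogenase assay: 0.03 nM B-Raf V600E, 30.1 nM MEK, 1 mM ATP, pH 7.5 Tris/MgCl2 buffer, 1% DMSO. NADH oxidation followed at 340 nm for 6 h at 30 °C; rate from 3–4 h converted to percent inhibition, IC50 by four-parameter fit.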

H2405 cells = assay: H2405 Cell Proliferation Assay (1); type: cell-based; details: Homo sapiens, NCI-H2405
Procedure: H2405 Cell Proliferation Assay (1)
as §1, with “H2405” for “Miapaca-2”, “#CRL-5994)” for “#CRL-1420)”, “RPMI 1640” for “DMEM”, “5%” for “10%”, “CA)” for “CA), 2.5% New Zealand sourced horse serum”

B-Raf (V600E) (SEQ. ID NO: 4) kinase, sequence (P15056 416-766 V600E): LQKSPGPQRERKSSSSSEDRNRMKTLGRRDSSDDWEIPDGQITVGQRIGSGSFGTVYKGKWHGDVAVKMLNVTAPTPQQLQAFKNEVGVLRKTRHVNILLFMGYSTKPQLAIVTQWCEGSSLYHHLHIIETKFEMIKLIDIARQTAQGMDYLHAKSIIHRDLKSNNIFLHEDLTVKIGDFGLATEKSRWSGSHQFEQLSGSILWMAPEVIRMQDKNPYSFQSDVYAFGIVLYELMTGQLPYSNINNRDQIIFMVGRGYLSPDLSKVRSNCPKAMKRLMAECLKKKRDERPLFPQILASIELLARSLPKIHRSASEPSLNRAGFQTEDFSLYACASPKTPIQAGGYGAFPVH
B-Raf kinase (SEQ. ID NO: 2), sequence (P15056 416-766): as the sequence (P15056 416-766 V600E) above, with E185V counted along it

Row | IC50 [1] [nM] | IC50 (Miapaca-2 cells) [nM] | IC50 [2] [nM] | IC50 (H2405 cells) [nM] | SMILES
1 | 100 to 500 |  | ≤ 100 | ≤ 100 | CNC(=O)c1cc(-c2cc(-c3cc(NC(=O)c4ccnc(C(C)(C)C#N)c4)ccc3C)cc(C3CC3)n2)ccn1 [Example 163]
2 | ≤ 100 | 1000 to 10000 | ≤ 100 |  | CC(=O)Nc1cc(-c2nccc(-c3cc(NC(=O)c4cnnc(C5CC5)c4)ccc3C)n2)ccn1 [Example 168]
3 | ≤ 100 | 1000 to 10000 | ≤ 100 |  | Cc1ccc(NC(=O)c2ccnc(C(C)(C)C#N)c2)cc1-c1nccc(-c2ccnc(NC(=O)C3CC3)c2)n1 [Example 169]
4 | ≤ 100 | 1000 to 10000 | ≤ 100 |  | Cc1ncc(NC(=O)c2ccnc(C(C)(C)C#N)c2)cc1-c1cccc(-c2ccnc(NC(=O)C3CC3)c2)n1 [Example 172]
5 | 100 to 500 | 1000 to 10000 | ≤ 100 |  | CNc1cc(-c2cncc(-c3cc(NC(=O)c4ccnc(C(C)(C)C#N)c4)ccc3C)n2)ccn1 [Example 173]
6 | ≤ 100 | 1000 to 10000 | ≤ 100 |  | Cc1ccc(NC(=O)c2cccc(C(C)(C)C#N)c2)cc1-c1cccc(-c2cc(NC(=O)C3CC3)ncn2)c1 [Example 174]
7 | ≤ 100 | 1000 to 10000 | ≤ 100 |  | CNC(=O)c1cc(-c2nccc(-c3cc(NC(=O)c4ccnc(C5(C#N)CC5)c4)ccc3C)n2)ccn1 [Example 175]
8 | 100 to 500 | 1000 to 10000 | ≤ 100 |  | CNC(=O)c1cc(-c2ccnc(-c3cc(NC(=O)c4ccnc(C(C)(C)C#N)c4)ccc3C)n2)ccn1 [Example 177]
9 | ≤ 100 | 1000 to 10000 | ≤ 100 |  | Cc1cc(F)c(NC(=O)c2ccnc(C(C)(C)C#N)c2)cc1-c1ccnc(-c2ccnc(NC(=O)C3CC3)c2)n1 [Example 179]
10 | 100 to 500 | 1000 to 10000 | ≤ 100 |  | CCC(=O)Nc1cc(-c2cccc(-c3cc(NC(=O)c4ccnc(C(C)(C)C#N)c4)cnc3C)n2)ccn1 [Example 182]
11 | ≤ 100 | 1000 to 10000 | ≤ 100 |  | Cc1ccc(NC(=O)c2ccnc(C3CC3)c2)cc1-c1cncc(-c2ccnc(NC(=O)C3CC3)c2)n1 [Example 184]

Further lines, the compound ahead of its results:

Row | SMILES | IC50 [1] [nM] | IC50 (Miapaca-2 cells) [nM] | IC50 [2] [nM] | IC50 (H2405 cells) [nM]
12 | CC(=O)Nc1cc(-c2cc(-c3cc(NC(=O)c4ccnc(C(F)(F)F)c4)ccc3C)ccn2)ccn1 [Example 6] | ≤ 100 | 1000 to 10000 | ≤ 100 | ≤ 100
13 | CC(=O)Nc1cc(-c2ccnc(-c3cc(NC(=O)c4ccnc(C(C)(C)C#N)c4)ccc3C)n2)ccn1 [Example 103] | ≤ 100 | 1000 to 10000 | ≤ 100 | ≤ 100
14 | Cc1cc(F)c(NC(=O)c2ccnc(C(C)(C)C#N)c2)cc1-c1ccnc(-c2ccnc(NC=O)c2)c1 [Example 104] | ≤ 100 | 1000 to 10000 | ≤ 100 | ≤ 100
15 | COCC(=O)Nc1cc(-c2cccc(-c3cc(NC(=O)c4ccnc(C(F)(F)F)c4)cnc3C)n2)ccn1 [Example 130] | ≤ 100 |  | ≤ 100 | 100 to 500
16 | Cc1ccc(NC(=O)c2ccnc(C(C)(C)C#N)c2)cc1-c1cccc(-c2ccnc3[nH]ccc23)c1 [Example 133] | 100 to 500 |  | ≤ 100 | 500 to 1000
17 | CC(=O)Nc1cc(-c2nccc(-c3cc(NC(=O)c4ccnc(C(F)(F)F)c4)cnc3C)n2)ccn1 [Example 157] | ≤ 100 | 1000 to 10000 | ≤ 100 | 
18 | CNC(=O)c1cc(-c2cc(-c3cc(NC(=O)c4ccnc(C(C)(C)C#N)c4)cnc3C)ccn2)ccn1 [Example 158] | 100 to 500 | 1000 to 10000 | ≤ 100 | 
19 | CNc1cc(-c2cccc(-c3cc(NC(=O)c4ccnc(C(C)(C)C#N)c4)ccc3C)c2)ncn1 [Example 160] | ≤ 100 | 1000 to 10000 | ≤ 100 | 
20 | Cc1ccc(NC(=O)c2ccnc(C(C)(C)C#N)c2)cc1-c1cncc(-c2ccnc(NC=O)c2)n1 [Example 161] | ≤ 100 | 1000 to 10000 | ≤ 100 | 
